Reference: patent publication US11130741B2 (Bioimics AB, priority 2016, dated 2021)
Converted amounts (≈) assume the structure as drawn. Like-named read-outs stand apart in the source and are kept apart here.

How the values were obtained:
[1] = system: E. coli RNase P RNA, M1 RNA; test: Inhibition of bacterial RNase P activity, IC50 determination (cleavage of pATSerUG by M1 RNA); assay type: biochemical; settings: NI = No inhibition
[2] = system: Staphylococcus aureus subsp. aureus (ATCC29213); test: MIC, broth microdilution (CLSI), Staphylococcus aureus subsp. aureus ATCC29213; assay type: cell-based
[3] = system: Escherichia coli (ATCC25922); test: MIC, broth microdilution (CLSI), Escherichia coli ATCC25922; settings: ATCC25922, read-out: E. coli MIC, Table 15, NI = No inhibition
[4] = system: Staphylococcus aureus (ATCC25923); test: MIC, broth microdilution (CLSI), Staphylococcus aureus ATCC25923; settings: ATCC25923, read-out: S. aureus ("Clinical") MIC
[5] = system: Pseudomonas aeruginosa (ATCC27853); test: microbe, parasite or virus in culture; assay type: cell-based; settings: read-out: MIC P. aeruginosa ATCC 27853
H. influenzae ATCC 49247 = test: MIC, H. influenzae ATCC 49247; assay type: cell-based; settings: Haemophilus influenzae, ATCC49247
A. baumannii ATCC 17978 = test: MIC, A. baumannii ATCC 17978; assay type: cell-based; settings: Acinetobacter baumannii, ATCC17978
[6] = system: P. aeruginosa NTUH-974 (MDR); test: MIC, P. aeruginosa NTUH-974 (MDR); assay type: cell-based; settings: Pseudomonas aeruginosa; read-out: MIC P. aeruginosa NTUH-974 (MDR)
N. gonorrhoeae 612501 = test: MIC, N. gonorrhoeae 612501; assay type: cell-based; settings: Neisseria gonorrhoeae
S. aureus ATCC 29213 = test: MIC, S. aureus ATCC 29213 + 50% HS; assay type: cell-based; settings: Staphylococcus aureus, ATCC29213
[7] = system: S. aureus MRSA ATCC 33591; test: MIC, S. aureus MRSA ATCC 33591; assay type: cell-based; settings: Staphylococcus aureus; read-out: MIC S. aureus MRSA ATCC 33591
S. pneumoniae ATCC 49619 = test: MIC, S. pneumoniae ATCC 49619; assay type: cell-based; settings: Streptococcus pneumoniae, ATCC49619
[8] = ATCC29213, Table 15, read-out: S. aureus ("wound") (MIC)

SMILES	IC50 [1] [µM]	MIC [2, 8] [µg/mL]	MIC [3] [µg/mL]	MIC [4] [µg/mL]	also measured
N#Cc1ccc2c(c1)Sc1cc(C(F)(F)F)cc(NC3CCN(CCN)CC3)c1N2 [compound 217, 9-((1-(2-Aminoethyl)piperidin-4-yl)amino)-7-(trifluoromethyl)-10H-phenothiazine-3-carbonitrile]	10	4 (≈ 9.23 µM)	3 (≈ 6.92 µM)	2 (≈ 4.61 µM)	
NCCN(CCN)CCN1CCC(Nc2cc(C(F)(F)F)cc3c2Nc2ccccc2S3)CC1 [compound 234, N1-(2-aminoethyl)-N1-(2-(4-((3-(trifluoromethyl)-10H-phenothiazin-1-yl)amino)piperidin-1-yl)ethyl)ethane-1,2-diamine]		8 (≈ 16.2 µM)	8 (≈ 16.2 µM)	4 (≈ 8.09 µM)	
NCCCN1c2ccc(-c3cc4ccccc4[nH]3)cc2Sc2cc(N3CCNCC3)ccc21.O=C(O)C(F)(F)F [compound 244, 3-(3-(1H-indol-2-yl)-7-(piperazin-1-yl)-10H-phenothiazin-10-yl)propan-1-amine]	4	4	36	9	
NC1CCCC(C(=O)Nc2cc(C(F)(F)F)cc3nc4ccccc4nc23)C1 (centres unmarked) [compound 211, 3-amino-N-(3-(trifluoromethyl)phenazin-1-yl) cyclohexane-carboxamide]	258	211 (≈ 543 µM)		25 (≈ 64.4 µM)	
FC(F)(F)c1cc(NC2CCNCC2)c2c(c1)Sc1ccccc1N2 [compound 141, N-(piperidin-4-yl)-3-(trifluoromethyl)-10H-phenothiazin-1-amine]	12	6 (≈ 16.4 µM)	12 (≈ 32.8 µM)	3 (≈ 8.21 µM)	
NC1CCCC(C(=O)Nc2cc(C(F)(F)F)cc3c2Nc2ccc(-c4cc5ccccc5[nH]4)cc2S3)C1 (centres unmarked) [compound 242, N-(7-(1H-Indol-2-yl)-3-(trifluoromethyl)-10H-phenothiazin-1-yl)-3-aminocyclohexanecarboxamide]	3	8 (≈ 15.3 µM)		4 (≈ 7.65 µM)	MIC [5]: > 128 µg/mL; MIC ([2]; ATCC29213, Table 16, read-out: MIC S. aureus ATCC 29213): 2 µg/mL (≈ 3.83 µM); MIC (H. influenzae ATCC 49247): 16 µg/mL (≈ 30.6 µM); MIC (A. baumannii ATCC 17978): 16 µg/mL (≈ 30.6 µM); MIC [6]: 64 µg/mL (≈ 122 µM); MIC (N. gonorrhoeae 612501): 2 µg/mL (≈ 3.83 µM); MIC (S. aureus ATCC 29213): 128 µg/mL; MIC [7]: 2 µg/mL (≈ 3.83 µM); MIC (S. pneumoniae ATCC 49619): 16 µg/mL (≈ 30.6 µM)
COC(=O)c1ccc2c(c1)Sc1cc(C(F)(F)F)cc(NC3CCN(CCN)CC3)c1N2 [compound 247, Methyl 9-((1-(2-aminoethyl)piperidin-4-yl)amino)-7-(trifluoromethyl)-10H-phenothiazine-3-carboxylate]	16	8 (≈ 17.1 µM)	4 (≈ 8.57 µM)	4 (≈ 8.57 µM)	
NCC(O)CNC(=O)c1cc2c(c([N+](=O)[O-])c1)Nc1ccccc1S2 (centres unmarked) [compound 94, N-(3-amino-2-hydroxypropyl)-1-nitro-10H-phenothiazine-3-carboxamide]	202	94 (≈ 261 µM)	> 100	64 (≈ 178 µM)	
CN(C)CCCN1c2ccccc2Sc2cc(-c3cc4ccccc4n3CCN)ccc21 [compound 136, 3-(3-(1-(2-aminoethyl)-1H-indol-2-yl)-10H-phenothiazin-10-yl)-N,N-dimethylpropan-1-amine]	37	16 (≈ 36.1 µM)	7 (≈ 15.8 µM)	7 (≈ 15.8 µM)	
CN(C)CCCN1c2ccc(-c3cc4ccccc4[nH]3)cc2Sc2cccnc21 [compound 135, 3-(7-(1H-Indol-2-yl)-10H-benzo[b]pyrido[2,3-e][1,4]thiazin-10-yl)-N,N-dimethylpropan-1-amine]	24 to 32	8 (≈ 20 µM)	> 100	6 (≈ 15 µM)	
FC(F)(F)c1cc(NC2CCNCC2)c2c(c1)Sc1cc(-c3cc4ccccc4[nH]3)ccc1N2.O=C(O)C(F)(F)F [compound 212, 7-(1H-indol-2-yl)-N-(piperidin-4-yl)-3-(trifluoromethyl)-10H-phenothiazin-1-amine trifluoroacetic Acid Salt]			> 100	19	IC50 ([1]; trifluoroacetic Acid Salt): 5 µM
NCCCNc1cc(C(F)(F)F)cc2c1Nc1ccccc1S2 [compound 97, N1-(3-(trifluoromethyl)-10H-phenothiazin-1-yl)propane-1,3-diamine]	> 100		8 (≈ 23.6 µM)	4 (≈ 11.8 µM)	
NC1CCCC(C(=O)Nc2cc(C(F)(F)F)cc3c2Nc2ccccc2O3)C1 (centres unmarked) [compound 156, 3-amino-N-(3-(trifluoromethyl)-10H-phenoxazin-1-yl)cyclohexane-carboxamide]	> 100		25 (≈ 63.9 µM)	13 (≈ 33.2 µM)	
FC(F)(F)c1cc(NC2CNC2)c2c(c1)Sc1ccccc1N2 [compound 193, N-(azetidin-3-yl)-3-(trifluoromethyl)-10H-phenothiazin-1-amine]	180		22 (≈ 65.2 µM)	5 (≈ 14.8 µM)	
O=C(Nc1cc(C(F)(F)F)cc2c1Nc1ccccc1S2)C1CNC1 [compound 188, N-(3-(trifluoromethyl)-10H-phenothiazin-1-yl)azetidine-3-carboxamide]	> 100		23 (≈ 62.9 µM)	12 (≈ 32.8 µM)	
NCCNC(=S)Nc1cc(C(F)(F)F)cc2c1Nc1ccccc1S2 [compound 98, 1-(2-aminoethyl)-3-(3-(trifluoro-methyl)-10H-phenothiazin-1-yl)thiourea]	> 100		16 (≈ 41.6 µM)	8 (≈ 20.8 µM)	
CN(C)CCCN1c2ccc(Cl)cc2Sc2cccnc21 [compound 126, 3-(7-chloro-10H-benzo[b]pyrido [2,3-e][1,4]thiazin-10-yl)-N,N-dimethyl-propan-1-amine]	> 100		> 100	82 (≈ 256 µM)	
NCCN1CCC(C(=O)Nc2cc(C(F)(F)F)cc3c2Nc2ccccc2S3)CC1 [compound 199]	65		28 (≈ 64.1 µM)	28 (≈ 64.1 µM)	
NCCCN1c2ccccc2Sc2cc(-c3cc4ccccc4n3CCN)ccc21.O=C(O)C(F)(F)F.O=C(O)C(F)(F)F [compound 222, 3-(3-(1-(2-aminoethyl)-1H-indol-2-yl)-10H-phenothiazin-10-yl)propan-1-amine bis(2,2,2-trifluoroacetate) salt]	18		5	3	
NC1CCCC(C(=O)Nc2cc(C(F)(F)F)cc3c2Nc2ccccc2S3)C1 (centres unmarked) [compound 105, 3-Amino-N-(3-(trifluoromethyl)-10H-phenothiazin-1-yl)cyclohexanecarboxamide]	15	32 (≈ 78.5 µM)	52 (≈ 128 µM)	26 (≈ 63.8 µM)	
NC1CCC(Nc2cc(C(F)(F)F)cc3c2Nc2ccccc2S3)CC1 (centres unmarked) [compound 180, N1-(3-(trifluoromethyl)-10H-phenothiazin-1-yl)cyclohexane-1,4-diamine]	87		14 (≈ 36.9 µM)	7 (≈ 18.4 µM)	
NCC1CCCC(C(=O)Nc2cc(C(F)(F)F)cc3c2Nc2ccccc2S3)C1 (centres unmarked) [compound 149, 3-(aminomethyl)-N-(3-(trifluoromethyl)-10H-phenothiazin-1-yl)cyclohexane-carboxamide]	15		54 (≈ 128 µM)	13 (≈ 30.8 µM)	
NCCN(CCN)CCN1CCC(Nc2cc(C(F)(F)F)cc3c2Nc2ccccc2S3)CC1.O=C(O)C(F)(F)F [compound 216, N1-(2-aminoethyl)-N1-(2-(4-((3-(trifluoromethyl)-10H-phenothiazin-1-yl)amino)piperidin-1-yl)ethyl)ethane-1,2-diamine 2,2,2-trifluoroacetate salt]	5		19	5	
CNCCN1CCC(Nc2cc(CN)cc3c2Nc2ccccc2S3)CC1.O=C(O)C(F)(F)F [compound 224, 3-(aminomethyl)-N-(1-(2-(methylamino)ethyl)piperidin-4-yl)-10H-phenothiazin-1-amine 2,2,2-trifluoroacetate salt]	68		64	64	
NCCNC1CCCC(C(=O)Nc2cc(C(F)(F)F)cc3c2Nc2ccccc2S3)C1 (centres unmarked) [compound 163, 3-((2-aminoethyl)amino)-N-(3-(trifluoromethyl)-10H-phenothiazin-1-yl)cyclohexane-carboxamide]	72		14 (≈ 31.1 µM)	14 (≈ 31.1 µM)	
NC1CCCC(C(=O)Nc2cc(C(F)(F)F)cc3c2Nc2cc(F)ccc2S3)C1.O=C(O)C(F)(F)F (centres unmarked) [compound 124, 3-Amino-N-(8-fluoro-3-(trifluoromethyl)-10H-phenothiazin-1-yl)cyclohexane carboxamide. TFA Salt]	59		35	17	
